Assay results reported in BindingDB's records for PubMed 29751237 (University of Kwazulu-Natal, 2018).
pIC50: −log10 of the molar value.

Biological target: Maltase-glucoamylase (Homo sapiens, UniProt O43451)
Assay: Inhibition of alpha-glucosidase (unknown origin) using p-nitrophenyl-alpha-D-glucopyranoside as substrate incubated for 30 mins by spectrophotometric analysis

Sequence of Maltase-glucoamylase (O43451 whole entry): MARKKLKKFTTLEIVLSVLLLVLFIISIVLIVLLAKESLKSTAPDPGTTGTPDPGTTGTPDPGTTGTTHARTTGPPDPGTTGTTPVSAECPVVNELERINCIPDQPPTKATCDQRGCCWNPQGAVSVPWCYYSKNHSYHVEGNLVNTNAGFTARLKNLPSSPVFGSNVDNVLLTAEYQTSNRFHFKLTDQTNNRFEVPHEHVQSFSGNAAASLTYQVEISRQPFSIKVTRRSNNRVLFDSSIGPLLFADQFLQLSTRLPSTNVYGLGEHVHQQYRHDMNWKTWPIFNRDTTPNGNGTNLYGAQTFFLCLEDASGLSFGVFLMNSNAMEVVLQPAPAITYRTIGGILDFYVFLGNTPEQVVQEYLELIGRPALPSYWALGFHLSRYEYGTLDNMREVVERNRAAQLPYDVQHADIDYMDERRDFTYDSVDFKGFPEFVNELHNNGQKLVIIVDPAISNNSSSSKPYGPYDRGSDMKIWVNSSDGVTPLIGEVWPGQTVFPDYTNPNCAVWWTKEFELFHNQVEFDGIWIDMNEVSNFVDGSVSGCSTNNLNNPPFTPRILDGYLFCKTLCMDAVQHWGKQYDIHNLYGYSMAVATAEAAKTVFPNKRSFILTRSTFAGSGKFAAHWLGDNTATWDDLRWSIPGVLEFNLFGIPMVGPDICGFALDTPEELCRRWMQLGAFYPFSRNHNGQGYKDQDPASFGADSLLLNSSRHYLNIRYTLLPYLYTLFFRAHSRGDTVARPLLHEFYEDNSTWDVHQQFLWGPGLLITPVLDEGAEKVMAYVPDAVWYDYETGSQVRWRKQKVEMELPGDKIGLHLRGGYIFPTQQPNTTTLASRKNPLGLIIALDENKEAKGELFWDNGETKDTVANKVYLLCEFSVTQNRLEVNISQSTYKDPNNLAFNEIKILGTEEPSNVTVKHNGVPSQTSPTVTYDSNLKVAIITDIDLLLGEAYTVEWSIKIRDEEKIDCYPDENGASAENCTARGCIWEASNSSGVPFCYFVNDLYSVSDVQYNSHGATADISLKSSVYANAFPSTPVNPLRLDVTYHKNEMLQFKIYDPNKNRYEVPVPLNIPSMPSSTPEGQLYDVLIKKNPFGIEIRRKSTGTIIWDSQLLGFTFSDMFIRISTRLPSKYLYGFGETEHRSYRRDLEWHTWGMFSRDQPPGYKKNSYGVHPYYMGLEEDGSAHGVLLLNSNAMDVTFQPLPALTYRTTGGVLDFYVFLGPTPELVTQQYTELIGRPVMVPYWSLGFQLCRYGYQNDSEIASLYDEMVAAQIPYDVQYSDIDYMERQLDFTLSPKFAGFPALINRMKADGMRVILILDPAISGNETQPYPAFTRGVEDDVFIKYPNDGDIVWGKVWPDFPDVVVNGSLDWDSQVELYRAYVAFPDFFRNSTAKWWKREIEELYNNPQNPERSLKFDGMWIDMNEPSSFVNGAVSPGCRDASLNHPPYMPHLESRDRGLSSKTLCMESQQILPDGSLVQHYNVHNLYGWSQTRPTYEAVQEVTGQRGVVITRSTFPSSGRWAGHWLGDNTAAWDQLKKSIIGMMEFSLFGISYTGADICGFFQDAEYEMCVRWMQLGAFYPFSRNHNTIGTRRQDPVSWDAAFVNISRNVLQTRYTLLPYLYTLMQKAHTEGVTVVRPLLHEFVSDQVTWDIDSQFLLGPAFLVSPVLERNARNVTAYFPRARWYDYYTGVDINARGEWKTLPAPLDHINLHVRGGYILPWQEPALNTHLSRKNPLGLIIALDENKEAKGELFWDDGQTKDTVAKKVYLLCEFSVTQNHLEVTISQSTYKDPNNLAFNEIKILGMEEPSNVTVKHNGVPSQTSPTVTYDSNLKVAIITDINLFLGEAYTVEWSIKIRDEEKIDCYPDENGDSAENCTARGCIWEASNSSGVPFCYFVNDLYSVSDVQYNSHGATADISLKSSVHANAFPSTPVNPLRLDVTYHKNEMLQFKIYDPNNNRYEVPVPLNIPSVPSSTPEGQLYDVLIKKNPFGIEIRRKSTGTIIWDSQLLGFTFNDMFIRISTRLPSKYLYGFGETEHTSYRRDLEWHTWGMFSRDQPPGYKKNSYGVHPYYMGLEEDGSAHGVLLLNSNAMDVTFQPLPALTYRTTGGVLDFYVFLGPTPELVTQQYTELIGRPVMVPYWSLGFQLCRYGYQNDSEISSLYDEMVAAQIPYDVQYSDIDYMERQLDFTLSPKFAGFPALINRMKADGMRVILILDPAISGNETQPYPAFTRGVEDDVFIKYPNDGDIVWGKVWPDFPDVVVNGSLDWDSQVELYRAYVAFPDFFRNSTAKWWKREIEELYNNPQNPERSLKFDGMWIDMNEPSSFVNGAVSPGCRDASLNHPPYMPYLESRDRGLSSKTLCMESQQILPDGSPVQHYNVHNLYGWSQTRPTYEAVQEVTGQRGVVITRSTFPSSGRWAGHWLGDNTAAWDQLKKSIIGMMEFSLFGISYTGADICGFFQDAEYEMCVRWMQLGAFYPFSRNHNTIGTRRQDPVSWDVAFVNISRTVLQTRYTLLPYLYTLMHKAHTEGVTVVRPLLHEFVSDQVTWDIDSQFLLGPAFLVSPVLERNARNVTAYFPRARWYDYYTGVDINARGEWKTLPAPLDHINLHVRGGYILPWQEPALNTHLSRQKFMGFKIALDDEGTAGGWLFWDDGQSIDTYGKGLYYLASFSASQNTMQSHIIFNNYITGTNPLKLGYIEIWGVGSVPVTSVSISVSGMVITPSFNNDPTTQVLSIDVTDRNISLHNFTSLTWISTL

Compound `CC(C)=CCC/C(C)=C/Cc1c(O)cc(O)c(C(=O)/C=C/c2ccc(O)cc2)c1O` has a pIC50 of 5.97.
